Test results published in patent US9238657B2, “Cephalosporin having catechol group” (SHIONOGI & CO., LTD., priority 2008, dated 2016).
Values after ≈ are worked out from the molar mass of the structure shown. Where two headings read alike, the source gives them in different places.

How the values were obtained:
Assay in all cases: Minimum Inhibitory Concentration (MIC), agar plate incubation
Assay type in all cases: cell-based
[1] = tested on: Stenotrophomonas maltophilia SR21970
Method: (§1) Measurement of Minimum Inhibitory Concentration (MIC, microg/ml) was conducted according to the standard method of the Japan Society for Chemotherapy, and the amount of bacteria for inoculation was 1000 cfu/spot, and sensitive disc medium was used as the test medium, and conducted using agar plate incubation.
(§2) In the tables, a unit of the values of inhibitory activity is microg/ml (μg/ml).
(§3) Bacterial strains described in the above tables and enzyme (beta-lactamase) produced thereby are explained in Table 7.

[2] = tested on: Acinetobacter baumannii SR24396
Method: as §1, §2, §3

[3] = tested on: Pseudomonas aeruginosa SR24
Method: as §1, §2, §3

[4] = tested on: Pseudomonas aeruginosa SR27060
Method: as §1, §2, §3

[5] = tested on: Klebsiella pneumoniae ATCC 700603
Method: as §1, §2, §3

[6] = Stenotrophomonas maltophilia SR21970 (L-1, MBL producer strain, carbapenem resistant), 1000 cfu/spot, sensitive disc medium, read-out: Minimum Inhibitory Concentration (MIC)
[7] = Acinetobacter baumannii SR24396 (no enzyme), 1000 cfu/spot, sensitive disc medium, read-out: Minimum Inhibitory Concentration (MIC)
[8] = Pseudomonas aeruginosa SR24 (no enzyme, Ceftazidime sensitive strain), 1000 cfu/spot, sensitive disc medium, read-out: Minimum Inhibitory Concentration (MIC)
[9] = Pseudomonas aeruginosa SR27060 (IMP-1, MBL producer strain, carbapenem resistant), 1000 cfu/spot, sensitive disc medium, read-out: Minimum Inhibitory Concentration (MIC)
[10] = ATCC700603, Klebsiella pneumoniae ATCC 700603 (SHV-18, ESBL producer strain), 1000 cfu/spot, sensitive disc medium, read-out: Minimum Inhibitory Concentration (MIC)
[11] = Acinetobacter baumannii, SR24396, read-out: Minimum Inhibitory Concentration (MIC)
[12] = Pseudomonas aeruginosa, SR24, read-out: Minimum Inhibitory Concentration (MIC)
[13] = Pseudomonas aeruginosa, SR27060, read-out: Minimum Inhibitory Concentration (MIC)
[14] = Klebsiella pneumoniae, ATCC700603, read-out: Minimum Inhibitory Concentration (MIC)
[15] = Stenotrophomonas maltophilia, SR21970, read-out: Minimum Inhibitory Concentration (MIC)

SMILES | MIC [1, 6] [µg/mL] | MIC [2, 7] [µg/mL] | MIC [3, 8] [µg/mL] | MIC [4, 9] [µg/mL] | MIC [5, 10] [µg/mL] | MIC [2, 11] [µg/mL] | MIC [3, 12] [µg/mL] | MIC [4, 13] [µg/mL] | MIC [5, 14] [µg/mL] | MIC [1, 15] [µg/mL]
COc1c(O)ccc(C(=O)NCC[N+]2(CC3=C(C(=O)[O-])N4C(=O)C(NC(=O)/C(=N\OC(C)(C)C(=O)O)c5csc(N)n5)C4SC3)CCCC2)c1Cl (centres unmarked) [Comparative Compound 1, reference compound] | 16 (≈ 20.9 µM) | 64 (≈ 83.5 µM) | 4 (≈ 5.22 µM) | 32 (≈ 41.8 µM) | 16 (≈ 20.9 µM) |  |  |  |  | 
CC(C)(O/N=C(\C(=O)N[C@@H]1C(=O)N2C(C(=O)[O-])=C(C[N+]3(CCNC(=O)c4ccc(O)c(O)c4Cl)CCCC3)CS[C@H]12)c1nsc(N)n1)C(=O)O [Compound I-1] | 0.5 (≈ 0.664 µM) | 0.125 (≈ 0.166 µM) | 0.063 (≈ 0.0836 µM) | 0.25 (≈ 0.332 µM) | 0.5 (≈ 0.664 µM) |  |  |  |  | 
CC(C)(O/N=C(\C(=O)N[C@@H]1C(=O)N2C(C(=O)O)=C(C[N+]3(CCNC(=O)c4ccc(O)c(O)c4)CCCC3)CS[C@H]12)c1csc(N)n1)C(=O)O [Compound I-2] |  | 0.25 | 0.063 | 0.125 | 0.25 |  |  |  |  | 
CC(C)(O/N=C(\C(=O)N[C@@H]1C(=O)N2C(C(=O)O)=C(C[N+]3(CCNC(=O)c4cc(Cl)c(O)c(O)c4Cl)CCCC3)CS[C@H]12)c1csc(N)n1)C(=O)O [Compound I-3] |  | 0.125 | 0.031 | 0.125 | 0.125 |  |  |  |  | 
CC(C)(O/N=C(\C(=O)N[C@@H]1C(=O)N2C(C(=O)[O-])=C(C[N+]3(CCNC(=O)c4ccc(O)c(O)c4Cl)CCCCCC3)CS[C@H]12)c1csc(N)n1)C(=O)O [Compound I-8] |  |  |  |  |  | 0.25 (≈ 0.32 µM) | 0.031 (≈ 0.0397 µM) | 0.125 (≈ 0.16 µM) | 0.125 (≈ 0.16 µM) | 
CC(C)(O/N=C(\C(=O)N[C@@H]1C(=O)N2C(C(=O)[O-])=C(C[N+]3(CCNC(=O)c4ccc(O)c(O)c4Cl)CCCC3)CS[C@H]12)c1csc(N)n1)C(=O)O [Compound I-12] | 0.5 (≈ 0.665 µM) | 0.25 (≈ 0.332 µM) | 0.063 (≈ 0.0838 µM) | 0.125 (≈ 0.166 µM) | 0.25 (≈ 0.332 µM) |  |  |  |  | 
C[C@H](O/N=C(\C(=O)N[C@@H]1C(=O)N2C(C(=O)[O-])=C(C[N+]3(CCNC(=O)c4ccc(O)c(O)c4Cl)CCCC3)CS[C@H]12)c1nc(N)sc1Cl)C(=O)[O-].[Na+] [Compound I-15] | 4 | 0.25 | 0.063 | 0.125 | 0.125 |  |  |  |  | 
CC(C)(O/N=C(\C(=O)N[C@@H]1C(=O)N2C(C(=O)[O-])=C(C[N+]3(CCNC(=O)c4ccc(O)c(O)c4)CCCCC3)CS[C@H]12)c1csc(N)n1)C(=O)O [Compound I-17] | 0.5 (≈ 0.683 µM) | 0.5 (≈ 0.683 µM) | 0.063 (≈ 0.0861 µM) | 0.125 (≈ 0.171 µM) | 0.25 (≈ 0.342 µM) |  |  |  |  | 
CC(C)(O/N=C(\C(=O)N[C@@H]1C(=O)N2C(C(=O)[O-])=C(C[N+]3(CCNC(=O)c4ccc(O)c(O)c4Cl)CCCCC3)CS[C@H]12)c1csc(N)n1)C(=O)O [Compound I-18] | 0.5 (≈ 0.653 µM) | 0.25 (≈ 0.326 µM) | 0.063 (≈ 0.0822 µM) | 0.25 (≈ 0.326 µM) | 0.125 (≈ 0.163 µM) |  |  |  |  | 
CC(C)(O/N=C(\C(=O)N[C@@H]1C(=O)N2C(C(=O)[O-])=C(C[N+]3(CCNC(=O)c4cc(Cl)c(O)c(O)c4Cl)CCCCC3)CS[C@H]12)c1csc(N)n1)C(=O)O [Compound I-19] | 0.25 (≈ 0.312 µM) | 0.125 (≈ 0.156 µM) | 0.063 (≈ 0.0787 µM) | 0.125 (≈ 0.156 µM) | 0.125 (≈ 0.156 µM) |  |  |  |  | 
C[C@H](O/N=C(\C(=O)N[C@@H]1C(=O)N2C(C(=O)[O-])=C(C[N+]3(CCNC(=O)c4ccc(O)c(O)c4Cl)CCCCC3)CS[C@H]12)c1nc(N)sc1Cl)C(=O)[O-].[Na+] [Compound I-22] | 4 | 0.25 | 0.063 | 0.125 | 0.125 |  |  |  |  | 
C[C@H](O/N=C(\C(=O)N[C@@H]1C(=O)N2C(C(=O)[O-])=C(C[N+]3(CCNC(=O)c4cc(Cl)c(O)c(O)c4Cl)CCCCC3)CS[C@H]12)c1nc(N)sc1Cl)C(=O)[O-].[Na+] [Compound I-23] |  | 0.125 | 0.031 | 0.125 | 0.031 |  |  |  |  | 
C[C@H](O/N=C(\C(=O)N[C@@H]1C(=O)N2C(C(=O)[O-])=C(C[N+]3(CCN(C)C(=O)c4ccc(O)c(O)c4)CCCC3)CS[C@H]12)c1nc(N)sc1Cl)C(=O)O [Compound I-25] |  | 0.5 (≈ 0.665 µM) | 0.125 (≈ 0.166 µM) | 0.25 (≈ 0.332 µM) | 0.5 (≈ 0.665 µM) |  |  |  |  | 
C[C@H](O/N=C(\C(=O)N[C@@H]1C(=O)N2C(C(=O)[O-])=C(C[N+]3(CCCNC(=O)c4ccc(O)c(O)c4)CCCC3)CS[C@H]12)c1nc(N)sc1Cl)C(=O)O [Compound I-26] |  | 1 (≈ 1.33 µM) | 0.125 (≈ 0.166 µM) | 0.5 (≈ 0.665 µM) | 0.5 (≈ 0.665 µM) |  |  |  |  | 
C=C(O/N=C(\C(=O)N[C@@H]1C(=O)N2C(C(=O)[O-])=C(C[N+]3(CCNC(=O)c4ccc(O)c(O)c4Cl)CCCC3)CS[C@H]12)c1csc(N)n1)C(=O)O [II-1] | 2 (≈ 2.72 µM) | 0.125 (≈ 0.17 µM) | 0.125 (≈ 0.17 µM) | 0.25 (≈ 0.34 µM) | 0.5 (≈ 0.679 µM) |  |  |  |  | 
Nc1nc(/C(=N/OC2(C(=O)[O-])CC2)C(=O)N[C@@H]2C(=O)N3C(C(=O)O)=C(C[N+]4(CCNC(=O)c5ccc(O)c(O)c5Cl)CCCC4)CS[C@H]23)cs1 [II-2] | 0.5 (≈ 0.666 µM) | 0.125 (≈ 0.167 µM) | 0.125 (≈ 0.167 µM) | 0.25 (≈ 0.333 µM) | 0.5 (≈ 0.666 µM) |  |  |  |  | 
Nc1nc(/C(=N/O[C@H](C(=O)O)c2ccccc2)C(=O)N[C@@H]2C(=O)N3C(C(=O)[O-])=C(C[N+]4(CCNC(=O)c5ccc(O)c(O)c5Cl)CCCC4)CS[C@H]23)cs1 [II-3] |  |  |  |  |  | 0.25 (≈ 0.312 µM) | 0.125 (≈ 0.156 µM) | 0.5 (≈ 0.625 µM) | 0.125 (≈ 0.156 µM) | 1 (≈ 1.25 µM)
NC(=O)C[C@H](O/N=C(\C(=O)N[C@@H]1C(=O)N2C(C(=O)[O-])=C(C[N+]3(CCNC(=O)c4ccc(O)c(O)c4Cl)CCCC3)CS[C@H]12)c1csc(N)n1)C(=O)O [II-4] |  |  |  |  |  | 0.25 (≈ 0.32 µM) | 0.125 (≈ 0.16 µM) | 0.25 (≈ 0.32 µM) | 0.5 (≈ 0.64 µM) | 1 (≈ 1.28 µM)
Nc1nc(/C(=N/O/C(=C/C(=O)O)C(=O)O)C(=O)N[C@@H]2C(=O)N3C(C(=O)O)=C(C[N+]4(CCNC(=O)c5ccc(O)c(O)c5Cl)CCCC4)CS[C@H]23)cs1 [II-10] | 1 | 0.25 | 0.125 | 0.25 | 0.5 |  |  |  |  | 
C[C@@H](C[N+]1(CC2=C(C(=O)O)N3C(=O)[C@@H](NC(=O)/C(=N\OC(C)(C)C(=O)[O-])c4csc(N)n4)[C@H]3SC2)CCCC1)NC(=O)c1ccc(O)c(O)c1Cl [II-12] |  |  |  |  |  | 0.25 (≈ 0.326 µM) | 0.063 (≈ 0.0822 µM) | 0.25 (≈ 0.326 µM) | 0.25 (≈ 0.326 µM) | 1 (≈ 1.31 µM)
CC(C)(O/N=C(\C(=O)N[C@@H]1C(=O)N2C(C(=O)O)=C(C[N+]3(CCNC(=O)c4ccc(O)c(O)c4Cl)CC=CC3)CS[C@H]12)c1csc(N)n1)C(=O)[O-] [II-13] | 1 (≈ 1.33 µM) | 0.25 (≈ 0.333 µM) | 0.063 (≈ 0.084 µM) | 0.5 (≈ 0.666 µM) | 0.25 (≈ 0.333 µM) |  |  |  |  | 
C[C@H](O/N=C(\C(=O)N[C@@H]1C(=O)N2C(C(=O)[O-])=C(C[N+]3(CCNC(=O)c4ccc(O)c(O)c4Cl)CCCC3)CS[C@H]12)c1csc(N)n1)C(=O)O [II-22] | 2 (≈ 2.71 µM) | 0.125 (≈ 0.169 µM) | 0.125 (≈ 0.169 µM) | 0.25 (≈ 0.339 µM) | 0.5 (≈ 0.677 µM) |  |  |  |  | 
CC(C)[C@H](O/N=C(\C(=O)N[C@@H]1C(=O)N2C(C(=O)[O-])=C(C[N+]3(CCNC(=O)c4ccc(O)c(O)c4Cl)CCCC3)CS[C@H]12)c1csc(N)n1)C(=O)O [II-23] | 0.5 (≈ 0.653 µM) | 0.25 (≈ 0.326 µM) | 0.125 (≈ 0.163 µM) | 0.25 (≈ 0.326 µM) | 0.125 (≈ 0.163 µM) |  |  |  |  | 
Nc1nc(/C(=N/OC2(C(=O)O)CCC2)C(=O)N[C@@H]2C(=O)N3C(C(=O)[O-])=C(C[N+]4(CCNC(=O)c5ccc(O)c(O)c5Cl)CCCC4)CS[C@H]23)cs1 [II-24] | 0.5 (≈ 0.654 µM) | 0.125 (≈ 0.164 µM) | 0.063 (≈ 0.0824 µM) | 0.5 (≈ 0.654 µM) | 0.125 (≈ 0.164 µM) |  |  |  |  | 
CC(C)[C@H](O/N=C(\C(=O)N[C@@H]1C(=O)N2C(C(=O)[O-])=C(C[N+]34CCC(CNC(=O)c5ccc(O)c(O)c5Cl)(CC3)CC4)CS[C@H]12)c1csc(N)n1)C(=O)[O-].[Na+] [II-25] | 1 | 0.25 | 0.063 | 0.25 | 0.25 |  |  |  |  | 
